System: Acinetobacter baumannii strains
Experiment: Antibiotic susceptibility test (CLSI disk diffusion test method, read per CLSI 2016); note: key: ‘S’ means susceptible; ‘I’ means intermediate; ‘R’ means resistant
Format: cell-based

## CC(C)(O/N=C(\C(=O)N[C@@H]1C(=O)N2C(C(=O)[O-])=C(C[n+]3ccccc3)CS[C@H]12)c1csc(N)n1)C(=O)O [Ceftazidime, ceftazidime]
Host strain YMC14/01/C29
  antibiotic susceptibility class: R
Host strain YMC14/01/IP122
  antibiotic susceptibility class: R
Host strain YMC14/01/L8
  antibiotic susceptibility class: R
Host strain YMC14/01/P31
  antibiotic susceptibility class: R
Host strain YMC14/01/P117
  antibiotic susceptibility class: R
Host strain YMC14/01/P224
  antibiotic susceptibility class: R
Host strain YMC14/01/P727
  antibiotic susceptibility class: R
Host strain YMC14/01/P728
  antibiotic susceptibility class: R
Host strain YMC14/01/R130
  antibiotic susceptibility class: R
Host strain YMC14/01/R160
  antibiotic susceptibility class: R
Host strain YMC14/01/R198
  antibiotic susceptibility class: R
Host strain YMC14/01/R257
  antibiotic susceptibility class: R
Host strain YMC14/01/R270
  antibiotic susceptibility class: R
Host strain YMC14/01/R324
  antibiotic susceptibility class: R
Host strain YMC14/01/R443
  antibiotic susceptibility class: R
Host strain YMC14/01/R451
  antibiotic susceptibility class: R
Host strain YMC14/01/R560
  antibiotic susceptibility class: R
Host strain YMC14/01/R617
  antibiotic susceptibility class: I
Host strain YMC14/01/R671
  antibiotic susceptibility class: R
Host strain YMC14/01/R732
  antibiotic susceptibility class: R
Host strain YMC14/01/R767
  antibiotic susceptibility class: R
Host strain YMC14/01/R904
  antibiotic susceptibility class: R
Host strain YMC14/01/R905
  antibiotic susceptibility class: R
Host strain YMC14/01/R921
  antibiotic susceptibility class: R
Host strain YMC14/01/R941
  antibiotic susceptibility class: R
Host strain YMC14/01/R958
  antibiotic susceptibility class: R
Host strain YMC14/01/R1006
  antibiotic susceptibility class: R
Host strain YMC14/01/R1199
  antibiotic susceptibility class: R
Host strain YMC14/01/R1659
  antibiotic susceptibility class: R
Host strain YMC14/01/R1722
  antibiotic susceptibility class: R
Host strain YMC14/01/R1752
  antibiotic susceptibility class: R
Host strain YMC14/01/R2429
  antibiotic susceptibility class: R
Host strain YMC14/01/R2572
  antibiotic susceptibility class: R
Host strain YMC14/01/R2855
  antibiotic susceptibility class: R
Host strain YMC14/01/R2945
  antibiotic susceptibility class: R
Host strain YMC14/01/R3007
  antibiotic susceptibility class: R
Host strain YMC14/01/R3129
  antibiotic susceptibility class: R
Host strain YMC14/01/R3317
  antibiotic susceptibility class: R
Host strain YMC14/01/R3474
  antibiotic susceptibility class: R
Host strain YMC14/01/R3574
  antibiotic susceptibility class: R
Host strain YMC14/01/U313
  antibiotic susceptibility class: R
Host strain YMC14/01/U318
  antibiotic susceptibility class: R
Host strain YMC14/02/L18
  antibiotic susceptibility class: R
Host strain YMC14/02/P47
  antibiotic susceptibility class: R
Host strain YMC14/02/R1860
  antibiotic susceptibility class: R
Host strain YMC14/02/R2417
  antibiotic susceptibility class: R
Host strain YMC14/02/R2599
  antibiotic susceptibility class: R
Host strain YMC14/02/R2668
  antibiotic susceptibility class: R
Host strain YMC14/02/R2758
  antibiotic susceptibility class: R
Host strain YMC14/02/R2781
  antibiotic susceptibility class: R
Host strain YMC14/02/R3106
  antibiotic susceptibility class: R
Host strain YMC14/02/R3419
  antibiotic susceptibility class: R
Host strain YMC14/02/U1607
  antibiotic susceptibility class: R
Host strain YMC14/03/L9
  antibiotic susceptibility class: R
Host strain YMC14/03/P471
  antibiotic susceptibility class: R
Host strain YMC14/03/R122
  antibiotic susceptibility class: R
Host strain YMC14/03/R217
  antibiotic susceptibility class: R
Host strain YMC14/03/R380
  antibiotic susceptibility class: R
Host strain YMC14/03/R618
  antibiotic susceptibility class: R
Host strain YMC14/03/R2144
  antibiotic susceptibility class: R
Host strain YMC14/03/U4616
  antibiotic susceptibility class: R
Host strain YMC14/04/R1078
  antibiotic susceptibility class: R
Host strain YMC14/04/R1080
  antibiotic susceptibility class: R
Host strain YMC14/06/R2359
  antibiotic susceptibility S/I/R: R
  susceptibility category (S/I/R): R
Host strain YMC14/08/R1169
  antibiotic susceptibility S/I/R: R
  susceptibility category (S/I/R): R
Host strain YMC14/08/T90
  antibiotic susceptibility S/I/R: R
  susceptibility category (S/I/R): R
Host strain YMC15/02/R436
  antibiotic susceptibility S/I/R: R
  susceptibility category (S/I/R): R
Host strain YMC15/02/T28
  antibiotic susceptibility S/I/R: R
  susceptibility category (S/I/R): R
Host strain YMC15/03/R1604
  antibiotic susceptibility S/I/R: R
  susceptibility category (S/I/R): R
Host strain YMC15/09/R1869
  antibiotic susceptibility S/I/R: R
  susceptibility category (S/I/R): R
Host strain YMC16/01/P11
  antibiotic susceptibility S/I/R: R
  susceptibility category (S/I/R): R
Host strain YMC16/01/R123
  antibiotic susceptibility S/I/R: R
  susceptibility category (S/I/R): R
Host strain YMC16/01/R198
  antibiotic susceptibility S/I/R: R
  susceptibility category (S/I/R): R
Host strain YMC16/01/R353
  antibiotic susceptibility S/I/R: R
  susceptibility category (S/I/R): R
Host strain YMC16/01/R380
  antibiotic susceptibility S/I/R: R
  susceptibility category (S/I/R): R
Host strain YMC16/01/R397
  antibiotic susceptibility S/I/R: R
  susceptibility category (S/I/R): R
Host strain YMC16/01/R405
  antibiotic susceptibility S/I/R: R
  susceptibility category (S/I/R): R
Host strain YMC16/03/R4461
  antibiotic susceptibility S/I/R: R
  susceptibility category (S/I/R): R
Host strain YMC16/05/R2210
  antibiotic susceptibility S/I/R: R
  susceptibility category (S/I/R): R
Host strain YMC16/07/R2512
  antibiotic susceptibility S/I/R: R
  susceptibility category (S/I/R): R
Host strain YMC16/09/R2471
  antibiotic susceptibility S/I/R: R
  susceptibility category (S/I/R): R
Host strain YMC16/10/R2537
  antibiotic susceptibility S/I/R: R
  susceptibility category (S/I/R): R
Host strain YMC16/12/B11422
  antibiotic susceptibility S/I/R: R
  susceptibility category (S/I/R): R
Host strain YMC16/12/B11449
  antibiotic susceptibility S/I/R: R
  susceptibility category (S/I/R): R
Host strain YMC16/12/B13325
  antibiotic susceptibility S/I/R: R
  susceptibility category (S/I/R): R
Host strain YMC16/12/P503
  antibiotic susceptibility S/I/R: R
  susceptibility category (S/I/R): R
Host strain YMC16/12/R4637
  antibiotic susceptibility S/I/R: R
  susceptibility category (S/I/R): R
Host strain YMC17/01/B8053
  antibiotic susceptibility S/I/R: R
  susceptibility category (S/I/R): R
Host strain YMC17/01/B10087
  antibiotic susceptibility S/I/R: R
  susceptibility category (S/I/R): R
Host strain YMC17/01/B12075
  antibiotic susceptibility S/I/R: R
  susceptibility category (S/I/R): R
Host strain YMC17/01/B13454
  antibiotic susceptibility S/I/R: R
  susceptibility category (S/I/R): R
Host strain YMC17/01/P518
  antibiotic susceptibility S/I/R: R
  susceptibility category (S/I/R): R
Host strain YMC17/01/R2812
  antibiotic susceptibility S/I/R: R
  susceptibility category (S/I/R): R
Host strain YMC17/02/B14
  antibiotic susceptibility S/I/R: R
  susceptibility category (S/I/R): R
Host strain YMC17/02/B87
  antibiotic susceptibility S/I/R: R
  susceptibility category (S/I/R): R
Host strain YMC17/02/B721
  antibiotic susceptibility S/I/R: R
  susceptibility category (S/I/R): R
Host strain YMC17/02/B4039
  antibiotic susceptibility S/I/R: R
  susceptibility category (S/I/R): R
Host strain YMC17/02/B4520
  antibiotic susceptibility S/I/R: R
  susceptibility category (S/I/R): R
Host strain YMC17/02/B4864
  antibiotic susceptibility S/I/R: S
  susceptibility category (S/I/R): S
Host strain YMC17/02/B8414
  antibiotic susceptibility S/I/R: R
  susceptibility category (S/I/R): R
Host strain YMC17/02/P523
  antibiotic susceptibility S/I/R: R
  susceptibility category (S/I/R): R
Host strain YMC17/02/R541
  antibiotic susceptibility S/I/R: R
  susceptibility category (S/I/R): R
Host strain YMC17/02/R2392
  antibiotic susceptibility S/I/R: R
  susceptibility category (S/I/R): R
Host strain YMC17/03/B4730
  antibiotic susceptibility S/I/R: R
  susceptibility category (S/I/R): R
Host strain YMC17/03/B5000
  antibiotic susceptibility S/I/R: R
  susceptibility category (S/I/R): R
Host strain YMC17/03/P971
  antibiotic susceptibility S/I/R: R
  susceptibility category (S/I/R): R
Host strain YMC17/03/R348
  antibiotic susceptibility S/I/R: R
  susceptibility category (S/I/R): R
Host strain YMC17/03/R585
  antibiotic susceptibility S/I/R: R
  susceptibility category (S/I/R): R
Host strain YMC17/03/R1888
  antibiotic susceptibility S/I/R: R
  susceptibility category (S/I/R): R
Host strain YMC17/03/R3279
  antibiotic susceptibility S/I/R: R
  susceptibility category (S/I/R): R
Host strain YMC17/03/R4077
  antibiotic susceptibility S/I/R: R
  susceptibility category (S/I/R): R
Host strain YMC17/03/R4607
  antibiotic susceptibility S/I/R: R
  susceptibility category (S/I/R): R
Host strain YMC17/04/R488
  antibiotic susceptibility S/I/R: R
  susceptibility category (S/I/R): R
Host strain YMC17/04/R640
  antibiotic susceptibility S/I/R: R
  susceptibility category (S/I/R): R
Host strain YMC/17/05/R1095
  antibiotic susceptibility S/I/R: R
  susceptibility category (S/I/R): R

Reference: patent publication US20240000872A1, “NOVEL BACTERIOPHAGE THAT LYSES ACINETOBACTER GENUS BACTERIA HAVING RESISTANCE TO ANTIBIOTICS” (priority 2020, published 2024)
